`CCNC(=O)Nc1cnc2ccc(Nc3ccccc3)nc2n1` [Compound 13, 1-Ethyl-3-(6-phenylamino-pyrido[2,3-b]pyrazin-3-yl)-urea]: the melting point was determined as 202 °C.
In turn, `CCNC(=O)Nc1ccc2ncc(-c3ccc(F)c(F)c3)nc2n1` [Compound 95, 1-[3-(3,4-Difluoro-phenyl)-pyrido[2,3-b]pyrazin-6-yl]-3-ethyl-urea] had a melting point of 259 to 262 °C.
For `CCNC(=O)Nc1ccc2ncc(-c3ccc(OC)cc3C)nc2n1` [Compound 98, 1-Ethyl-3-[3-(4-methoxy-2-methyl-phenyl)-pyrido[2,3-b]pyrazin-6-yl]-urea] the value was 223 to 225 °C; for `CCNC(=S)Nc1ccc2ncc(Nc3ccc(O)c(Cl)c3)nc2n1` [Compound 441, 1-[3-(3-Chloro-4-hydroxy-phenylamino)-pyrido[2,3-b]pyrazin-6-yl]-3-ethyl-thiourea], 220 °C.
In the case of `CCNC(=O)Nc1ccc2ncc(-c3cccc(OC(F)(F)F)c3)nc2n1` [Compound 118, 1-Ethyl-3-[3-(3-trifluoromethoxy-phenyl)-pyrido[2,3-b]pyrazin-6-yl]-urea] it was 239 to 240 °C; in that of `CCNC(=O)Nc1ccc2ncc(-c3cc4ccccc4[nH]3)nc2n1` [Compound 70, 1-Ethyl-3-[3-(1H-indol-2-yl)-pyrido[2,3-b]pyrazin-6-yl]-urea], over 300 °C.
For `O=C(Nc1cnc2ccc(-c3cc(Cl)c(O)c(Cl)c3)nc2n1)Nc1cccs1` [Compound 560, 1-[6-(3,5-Dichloro-4-hydroxy-phenyl)-pyrido[2,3-b]pyrazin-3-yl]-3-thiophen-2-yl-urea], the melting point lay within 253 to 255 °C.
For `COc1cc(Nc2cnc3ccc(NC(=S)NCc4ccc(C)cc4)nc3n2)cc(OC)c1OC` [Compound 698, 1-(4-Methyl-benzyl)-3-[3-(3,4,5-trimethoxy-phenylamino)-pyrido[2,3-b]pyrazin-6-yl]-thiourea] the value was 248 to 250 °C.
In the case of `CCNC(=S)Nc1ccc2ncc(Nc3ccc(F)c(F)c3)nc2n1` [Compound 433, 1-[3-(3,4-Difluoro-phenylamino)-pyrido[2,3-b]pyrazin-6-yl]-3-ethyl-thiourea] it was 265 °C; in that of `COc1ccc(-c2ccc3ncc(NC(=O)NC4CCN(C(=O)C(F)(F)F)CC4)nc3n2)cc1OC` [Compound 581, 1-[6-(3,4-Dimethoxy-phenyl)-pyrido[2,3-b]pyrazin-3-yl]-3-[1-(2,2,2-trifluoro-acetyl)-piperidin-4-yl]-urea], 239 to 242 °C; in that of `CCNC(=S)Nc1cnc2ccc(Nc3cc(OC)c(OC)c(OC)c3)nc2n1` [Compound 200, 1-Ethyl-3-[6-(3,4,5-trimethoxy-phenylamino)-pyrido[2,3-b]pyrazin-3-yl]-thiourea], 238 °C.
Molecule `CCNC(=O)Nc1ccc2ncc(-c3cccc(SC)c3)nc2n1` [Compound 117, 1-Ethyl-3-[3-(3-methylsulfanyl-phenyl)-pyrido[2,3-b]pyrazin-6-yl]-urea] showed a melting point of 221 to 224 °C.
In the case of `COc1cc(-c2ccc3ncc(NC(=S)NC4CCCCCCC4)nc3n2)ccc1O` [Compound 653, 1-Cyclooctyl-3-[6-(4-hydroxy-3-methoxy-phenyl)-pyrido[2,3-b]pyrazin-3-yl]-thiourea], the melting point lay within 250 to 251 °C.
For the molecule `CCNC(=O)Nc1cnc2ccc(N3CCN(C)CC3)nc2n1` [Compound 227, 1-Ethyl-3-[6-(4-methyl-piperazin-1-yl)-pyrido[2,3-b]pyrazin-3-yl]-urea], the melting point fell in the range of 214 to 216 °C.
`CC(=O)Nc1ccc2ncc(Nc3cccc(OC(C)C)c3)nc2n1` [Compound 36, N-[3-(3-Isopropoxy-phenylamino)-pyrido[2,3-b]pyrazin-6-yl]-acetamide] had a melting point of 177 °C.
As to `CCNC(=O)Nc1ccc2ncc(Nc3ccc4c(c3)OC(F)(F)O4)nc2n1` [Compound 42, 1-[3-(2,2-Difluoro-benzo[1,3]dioxol-5-ylamino)-pyrido[2,3-b]pyrazin-6-yl]-3-ethyl-urea], the melting point lay in the range of 238 to 241 °C.
As for `COc1ccc(-c2ccc3ncc(NC(=O)Nc4c(C)noc4C)nc3n2)cc1OC` [Compound 573, 1-[6-(3,4-Dimethoxy-phenyl)-pyrido[2,3-b]pyrazin-3-yl]-3-(3,5-dimethyl-isoxazol-4-yl)-urea], the melting point fell in the range of 265 to 267 °C.
In the case of `CC(=O)NCC(=O)Nc1ccc2ncc(Nc3ccc(C)cc3)nc2n1` [Compound 66, 2-Acetylamino-N-(3-p-tolylamino-pyrido [2,3-b]pyrazin-6-yl)-acetamide], the melting point lay in the range of 276 to 279 °C.
In the case of `CCNC(=O)Nc1ccc2ncc(-c3cnc4[nH]ccc4c3)nc2n1` [Compound 61, 1-Ethyl-3-[3-(1H-pyrrolo[2,3-b]pyridin-5-yl)-pyrido[2,3-b]pyrazin-6-yl]-urea], the melting point lay within 270 to 274 °C.
Turning to `CCNC(=S)Nc1ccc2ncc(-c3cc(C)c(O)c(C)c3)nc2n1` [Compound 125, 1-Ethyl-3-[3-(4-hydroxy-3,5-dimethyl-phenyl)-pyrido[2,3-b]pyrazin-6-yl]-thiourea], the melting point is 244 °C.
In turn, `CC(C)Oc1cccc(Nc2cnc3ccc(NC(=O)NC4CC4)nc3n2)c1` [Compound 49, 1-Cyclopropyl-3-[3-(3-isopropoxy-phenylamino)-pyrido[2,3-b]pyrazin-6-yl]-urea] gave a melting point of 134 °C.
In the case of `CCOC(=O)CCNC(=S)Nc1ccc2ncc(Nc3cc(OC)c(OC)c(OC)c3)nc2n1` [Compound 709, 3-{3-[3-(3,4,5-Trimethoxy-phenylamino)-pyrido[2,3-b]pyrazin-6-yl]-thioureido}-propionic acid ethyl ester], the melting point turned out to be 244 °C.
Regarding `CCNC(=O)Nc1ccc2ncc(Nc3ccc(N(C)C)cc3)nc2n1` [Compound 169, 1-[3-(4-Dimethylamino-phenylamino)-pyrido[2,3-b]pyrazin-6-yl]-3-ethyl-urea], the melting point was 228 °C.
`CCNC(=O)Nc1ccc2ncc(-c3cccc([N+](=O)[O-])c3)nc2n1` [Compound 101, 1-Ethyl-3-[3-(3-nitro-phenyl)-pyrido[2,3-b]pyrazin-6-yl]-urea] displayed a melting point of 249 to 253 °C.
`CCNC(=S)Nc1cnc2ccc(-c3cc(OC)c(OC)c(OC)c3)nc2n1` [Compound 650, 1-Ethyl-3-[6-(3,4,5-trimethoxy-phenyl)-pyrido[2,3-b]pyrazin-3-yl]-thiourea] displayed a melting point of 218 to 219 °C.
For `COc1cc(-c2ccc3ncc(NC(=O)Nc4ccc(C#N)cc4)nc3n2)ccc1O` [Compound 626, 1-(4-Cyano-phenyl)-3-[6-(4-hydroxy-3-methoxy-phenyl)-pyrido[2,3-b]pyrazin-3-yl]-urea] the value was 259 to 261 °C; for `CCNC(=O)Nc1ccc2ncc(-c3cnn(CC(C)C)c3)nc2n1` [Compound 59, 1-Ethyl-3-[3-(1-isobutyl-1H-pyrazol-4-yl)-pyrido[2,3-b]pyrazin-6-yl]-urea], 189 to 191 °C.
With `CCNC(=O)Nc1ccc2ncc(Nc3ccc(O)c(C)c3)nc2n1` [Compound 86, 1-Ethyl-3-[3-(4-hydroxy-3-methyl-phenylamino)-pyrido[2,3-b]pyrazin-6-yl]-urea], the melting point fell in the range of 277 to 280 °C.
As to `CCCNC(=S)Nc1ccc2ncc(Nc3cc(OC)c(OC)c(OC)c3)nc2n1` [Compound 501, 1-Propyl-3-[3-(3,4,5-trimethoxy-phenylamino)-pyrido[2,3-b]pyrazin-6-yl]-thiourea], the melting point stood at 243 °C.
For `O=C(Nc1cnc2ccc(-c3cc(Cl)c(O)c(Cl)c3)nc2n1)NC1CCCCCCC1` [Compound 556, 1-Cyclooctyl-3-[6-(3,5-dichloro-4-hydroxy-phenyl)-pyrido[2,3-b]pyrazin-3-yl]-urea] the value was 261 to 263 °C; for `CCNC(=S)Nc1cnc2ccc(Nc3ccccc3O)nc2n1` [Compound 197, 1-Ethyl-3-[6-(2-hydroxy-phenylamino)-pyrido[2,3-b]pyrazin-3-yl]-thiourea], 211 °C; for `CCNC(=O)Nc1ccc2ncc(-c3ccc(OP(=O)([O-])[O-])c(OC)c3)nc2n1.[Na+].[Na+]`, over 350 °C.
`COc1cc(-c2ccc3ncc(NC(=O)Nc4ccc(F)cc4)nc3n2)ccc1O` [Compound 600, 1-(4-Fluoro-phenyl)-3-[6-(4-hydroxy-3-methoxy-phenyl)-pyrido[2,3-b]pyrazin-3-yl]-urea]: the melting point is 244 to 246 °C.
For `COc1ccc(-c2ccc3ncc(NC(=O)Nc4ccccc4)nc3n2)cc1OC` [Compound 580, 1-[6-(3,4-Dimethoxy-phenyl)-pyrido[2,3-b]pyrazin-3-yl]-3-phenyl-urea] the value was 248 to 251 °C; for `COc1cc(-c2ccc3ncc(NC(=O)N[C@@H]4C[C@H]4c4ccccc4)nc3n2)ccc1O` [Compound 603, 1-[6-(4-Hydroxy-3-methoxy-phenyl)-pyrido[2,3-b]pyrazin-3-yl]-3-((1R,2S)-2-phenyl-cyclopropyl)-urea], 233 to 236 °C; for `COc1cc(-c2ccc3ncc(NC(=O)Nc4ccc(N(C)C)cc4)nc3n2)ccc1O` [Compound 602, 1-(4-Dimethylamino-phenyl)-3-[6-(4-hydroxy-3-methoxy-phenyl)-pyrido[2,3-b]pyrazin-3-yl]-urea], 287 to 290 °C.
Consider `CCNC(=O)Nc1cnc2ccc(Nc3ccc(C)c(OC)c3)nc2n1` [Compound 209, 1-Ethyl-3-[6-(3-methoxy-4-methyl-phenylamino)-pyrido[2,3-b]pyrazin-3-yl]-urea], for which the melting point was found to be 255 °C.
For `C=CCNC(=O)Nc1cnc2ccc(-c3cc(C)c(O)c(C)c3)nc2n1` [Compound 587, 1-Allyl-3-[6-(4-hydroxy-3,5-dimethyl-phenyl)-pyrido[2,3-b]pyrazin-3-yl]-urea], the melting point was 210 to 212 °C.
For `CCNC(=O)Nc1ccc2ncc(-c3cc(F)c(F)c(F)c3)nc2n1` [Compound 81, 1-Ethyl-3-[3-(3,4,5-trifluoro-phenyl)-pyrido[2,3-b]pyrazin-6-yl]-urea] the value was 305.4 to 307.2 °C; for `CCNC(=O)Nc1ccc2ncc(-c3ccc(F)cc3OCC)nc2n1` [Compound 112, 1-[3-(2-Ethoxy-4-fluoro-phenyl)-pyrido [2,3-b]pyrazin-6-yl]-3-ethyl-urea], 229 to 231 °C.

A word on the melting point: it is the temperature, or range, at which the solid turns liquid.
